# Source: patent US12227500B2, “Substituted pyrrolo[2,3-b]pyridines for suppressing toxic endoplasmic reticulum stress” (THE TRUSTEES OF COLUMBIA UNIVERSITY IN THE CITY OF NEW YORK, priority 2018, dated 2025)
# Read-outs that look alike come from different tables or passages of the source.
# What was measured:
# [1] = system: human ES motor neurons carrying the ALS-causing SOD1^A4V mutation; assay: cells; type: cell-based; conditions: 72 h, 72 h; for EC50 / Emax: CPA 33 μM; for EC50: read-out: EC50; for viability at 1 µM: CPA (33 μM) + compound (1 μM), read-out: Motor Neuron Survival, % untreated; for Emax: read-out: Emax (MN survival % untreated)
# Method: Next, survival assays were performed with all the analogs at once to generate a low-variability dataset. All compounds were evaluated at concentrations ranging from 0.1-3.0 μM (five-point dilution) in three technical replicates and two biological replicates.
# [2] = molecular target: T1, MLK3/MAP3K11 (Homo sapiens, UniProt Q16584); assay: Radiolabeled ATP kinase assay (Reaction Biology Corp.), MLK3; type: biochemical; conditions: for % Enzyme Activity Remaining (relative to DMSO controls), MLK3/MAP3K11, Data 1 / % Enzyme Activity Remaining (relative to DMSO controls), MLK3/MAP3K11, Data 2: [Cmpd] 0.1 μM, 10 μM ATP
# T1 construct: purchased Reaction Biology Corp
# T1 sequence (Q16584 whole entry): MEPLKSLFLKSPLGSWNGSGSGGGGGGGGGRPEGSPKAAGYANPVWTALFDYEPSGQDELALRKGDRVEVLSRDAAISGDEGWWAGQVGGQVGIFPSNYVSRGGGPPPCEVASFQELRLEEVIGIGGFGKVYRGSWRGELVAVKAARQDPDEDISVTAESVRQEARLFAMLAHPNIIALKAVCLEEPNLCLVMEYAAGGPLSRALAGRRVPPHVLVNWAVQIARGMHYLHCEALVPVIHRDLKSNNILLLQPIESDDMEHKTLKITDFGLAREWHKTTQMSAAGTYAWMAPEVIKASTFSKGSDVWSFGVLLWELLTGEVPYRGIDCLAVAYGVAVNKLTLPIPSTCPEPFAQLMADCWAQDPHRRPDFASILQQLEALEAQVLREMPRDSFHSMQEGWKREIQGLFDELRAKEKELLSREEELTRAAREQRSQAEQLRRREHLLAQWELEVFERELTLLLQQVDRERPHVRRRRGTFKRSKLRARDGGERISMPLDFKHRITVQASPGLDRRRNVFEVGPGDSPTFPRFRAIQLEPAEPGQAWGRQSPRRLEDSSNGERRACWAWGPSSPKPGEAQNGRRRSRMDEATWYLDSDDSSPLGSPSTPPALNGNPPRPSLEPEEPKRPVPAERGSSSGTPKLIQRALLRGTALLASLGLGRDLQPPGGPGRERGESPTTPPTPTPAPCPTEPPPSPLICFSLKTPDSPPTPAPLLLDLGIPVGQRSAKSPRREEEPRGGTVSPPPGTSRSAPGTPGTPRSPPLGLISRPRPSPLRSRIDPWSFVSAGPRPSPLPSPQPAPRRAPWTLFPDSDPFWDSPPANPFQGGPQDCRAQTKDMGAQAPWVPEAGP
# Method: (§1) Meanwhile, the same analogs were analyzed in a radiolabeled ATP assay (10 μM ATP; Reaction Biology Corp.) to compare the extent to which they could inhibit the activity of HGK, MLK1, or MLK3 in a cell-free environment (Table S3 and S4).
# [3] = molecular target: T2, panel of 60 human kinases (Homo sapiens, UniProt P50750); assay: Radiolabeled ATP kinase assay, panel of 60 kinases (Table S5); type: biochemical; conditions: 0.1 μM, 10 μM ATP, read-out: % Enzyme Activity (relative to DSMO controls)
# T2 construct: purchased Reaction Biology Corp
# T2 sequence (P50750 whole entry): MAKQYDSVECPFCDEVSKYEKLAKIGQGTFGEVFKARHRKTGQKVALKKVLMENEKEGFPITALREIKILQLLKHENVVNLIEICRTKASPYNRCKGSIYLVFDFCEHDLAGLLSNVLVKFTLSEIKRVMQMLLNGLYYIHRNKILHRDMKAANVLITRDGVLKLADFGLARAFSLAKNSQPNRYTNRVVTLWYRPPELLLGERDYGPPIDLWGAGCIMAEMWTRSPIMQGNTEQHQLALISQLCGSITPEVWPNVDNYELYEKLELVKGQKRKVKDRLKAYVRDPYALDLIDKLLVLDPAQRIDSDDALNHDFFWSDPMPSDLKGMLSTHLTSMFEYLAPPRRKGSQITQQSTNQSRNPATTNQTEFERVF
# Method: (§2) To better understand the biologically relevant targets of compound 1 and its analogs, a second round of cell-free kinase assays was performed. In this expanded assay, we selected ten analogs ranging from moderately to very strongly protective in the CPA assay. These analogs were evaluated for their ability to inhibit a selection of 60 kinases at 0.1 μM and 0.5 μM. […] RNAseq data were used to confirm the expression of each kinase in ES MNs (see Example 12).
# (§3) RNAseq data were used to confirm the expression of each kinase in ES motor neurons (see Example 12).
# [4] = molecular target: T3, panel of 60 human kinases (Homo sapiens, UniProt O14965); assay: as above; type: biochemical; conditions: Aurora A; 0.1 μM; 10 μM ATP; read-out: % Enzyme Activity (relative to DSMO controls)
# T3 construct: purchased Reaction Biology Corp
# T3 sequence (O14965 1-403): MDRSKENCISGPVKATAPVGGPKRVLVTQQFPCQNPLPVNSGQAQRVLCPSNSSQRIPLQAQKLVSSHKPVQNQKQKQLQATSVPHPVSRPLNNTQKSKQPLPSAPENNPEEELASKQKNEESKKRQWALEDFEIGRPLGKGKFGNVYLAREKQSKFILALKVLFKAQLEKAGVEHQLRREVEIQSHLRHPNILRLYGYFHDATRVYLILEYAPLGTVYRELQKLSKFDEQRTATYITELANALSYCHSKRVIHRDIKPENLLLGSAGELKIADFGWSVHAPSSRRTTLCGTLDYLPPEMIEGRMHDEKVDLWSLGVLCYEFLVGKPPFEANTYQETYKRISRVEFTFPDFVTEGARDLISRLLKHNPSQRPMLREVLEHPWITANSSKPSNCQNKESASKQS
# Method: as §2, §3
# [5] = molecular target: T4, panel of 60 human kinases (Homo sapiens, UniProt P11802); assay: as above; type: biochemical; conditions: 0.1 μM, 10 μM ATP, read-out: % Enzyme Activity (relative to DSMO controls)
# T4 construct: purchased Reaction Biology Corp
# T4 sequence (P11802 whole entry): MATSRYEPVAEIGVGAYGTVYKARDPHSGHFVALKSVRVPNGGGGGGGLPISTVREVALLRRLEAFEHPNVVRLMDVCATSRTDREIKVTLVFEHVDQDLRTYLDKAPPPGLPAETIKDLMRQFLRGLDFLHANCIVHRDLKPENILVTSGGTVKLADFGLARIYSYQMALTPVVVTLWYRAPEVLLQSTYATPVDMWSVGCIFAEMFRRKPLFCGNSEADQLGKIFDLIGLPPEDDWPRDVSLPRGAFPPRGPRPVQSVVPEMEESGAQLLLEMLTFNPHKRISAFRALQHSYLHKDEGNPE
# Method: as §2, §3
# [6] = molecular target: T5, panel of 60 human kinases (Homo sapiens, UniProt Q00536); assay: as above; type: biochemical; conditions: CDK16/cyclin Y (PCTAIRE); 0.1 μM; 10 μM ATP; read-out: % Enzyme Activity (relative to DSMO controls)
# T5 construct: purchased Reaction Biology Corp
# T5 sequence (Q00536 whole entry): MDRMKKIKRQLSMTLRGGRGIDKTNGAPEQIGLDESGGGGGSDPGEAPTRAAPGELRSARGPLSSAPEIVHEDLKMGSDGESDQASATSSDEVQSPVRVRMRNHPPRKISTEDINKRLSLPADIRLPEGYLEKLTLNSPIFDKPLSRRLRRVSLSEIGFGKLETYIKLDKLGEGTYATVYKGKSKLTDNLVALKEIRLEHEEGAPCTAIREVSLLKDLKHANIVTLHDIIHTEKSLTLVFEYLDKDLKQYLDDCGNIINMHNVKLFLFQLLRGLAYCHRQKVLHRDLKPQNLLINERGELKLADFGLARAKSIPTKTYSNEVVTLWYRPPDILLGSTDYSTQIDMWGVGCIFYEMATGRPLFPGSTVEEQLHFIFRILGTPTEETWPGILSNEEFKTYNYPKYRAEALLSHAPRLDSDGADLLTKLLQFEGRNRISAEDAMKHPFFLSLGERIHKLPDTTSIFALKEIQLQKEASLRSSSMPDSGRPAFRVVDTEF
# Method: as §2, §3
# [7] = molecular target: T6, panel of 60 human kinases (Homo sapiens, UniProt Q9UKE5); assay: as above; type: biochemical; conditions: TNIK; 0.1 μM; 10 μM ATP; read-out: % Enzyme Activity (relative to DSMO controls)
# T6 construct: purchased Reaction Biology Corp
# T6 sequence (Q9UKE5 whole entry): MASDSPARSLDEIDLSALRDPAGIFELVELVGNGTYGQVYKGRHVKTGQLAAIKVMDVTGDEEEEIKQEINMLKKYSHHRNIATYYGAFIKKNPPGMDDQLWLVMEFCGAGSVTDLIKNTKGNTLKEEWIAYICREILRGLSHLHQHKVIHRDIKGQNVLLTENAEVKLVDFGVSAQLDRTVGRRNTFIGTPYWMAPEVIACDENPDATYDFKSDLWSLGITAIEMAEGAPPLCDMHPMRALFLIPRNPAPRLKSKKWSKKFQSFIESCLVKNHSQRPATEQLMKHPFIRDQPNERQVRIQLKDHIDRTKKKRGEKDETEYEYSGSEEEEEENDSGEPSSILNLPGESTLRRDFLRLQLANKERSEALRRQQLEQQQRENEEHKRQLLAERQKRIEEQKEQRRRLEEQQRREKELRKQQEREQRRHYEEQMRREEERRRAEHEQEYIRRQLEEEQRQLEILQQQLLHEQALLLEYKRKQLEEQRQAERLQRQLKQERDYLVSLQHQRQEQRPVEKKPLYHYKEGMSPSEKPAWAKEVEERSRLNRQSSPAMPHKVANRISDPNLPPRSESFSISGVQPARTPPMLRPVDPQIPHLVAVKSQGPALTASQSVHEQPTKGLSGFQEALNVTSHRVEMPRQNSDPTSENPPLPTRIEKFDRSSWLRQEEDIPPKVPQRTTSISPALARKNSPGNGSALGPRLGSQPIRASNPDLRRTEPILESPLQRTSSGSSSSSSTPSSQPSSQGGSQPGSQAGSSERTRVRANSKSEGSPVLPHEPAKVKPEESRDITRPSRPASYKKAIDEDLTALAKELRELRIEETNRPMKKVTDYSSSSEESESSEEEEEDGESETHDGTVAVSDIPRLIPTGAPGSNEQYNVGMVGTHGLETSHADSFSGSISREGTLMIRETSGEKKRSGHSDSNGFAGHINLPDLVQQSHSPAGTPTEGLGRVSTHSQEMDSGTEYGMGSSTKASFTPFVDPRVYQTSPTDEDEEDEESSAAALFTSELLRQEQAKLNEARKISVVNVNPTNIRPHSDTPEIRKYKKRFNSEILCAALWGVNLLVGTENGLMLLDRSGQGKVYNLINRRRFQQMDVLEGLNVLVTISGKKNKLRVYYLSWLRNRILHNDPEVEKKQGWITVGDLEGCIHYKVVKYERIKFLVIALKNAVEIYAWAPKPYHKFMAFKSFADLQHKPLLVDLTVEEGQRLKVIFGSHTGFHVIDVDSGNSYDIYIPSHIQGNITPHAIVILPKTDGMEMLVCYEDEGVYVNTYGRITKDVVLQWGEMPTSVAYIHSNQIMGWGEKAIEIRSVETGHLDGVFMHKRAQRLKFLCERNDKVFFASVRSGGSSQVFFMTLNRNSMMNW
# Method: as §2, §3
# [8] = molecular target: T7, panel of 60 human kinases (Homo sapiens, UniProt Q9UM73); assay: as above; type: biochemical; conditions: ALK; 0.1 μM; 10 μM ATP; read-out: % Enzyme Activity (relative to DSMO controls)
# T7 construct: purchased Reaction Biology Corp
# Method: as §2, §3
# [9] = molecular target: T8, panel of 60 human kinases (Homo sapiens, UniProt P49841); assay: as above; type: biochemical; conditions: GSK3b; 0.1 μM; 10 μM ATP; read-out: % Enzyme Activity (relative to DSMO controls)
# T8 construct: purchased Reaction Biology Corp
# T8 sequence (P49841 whole entry): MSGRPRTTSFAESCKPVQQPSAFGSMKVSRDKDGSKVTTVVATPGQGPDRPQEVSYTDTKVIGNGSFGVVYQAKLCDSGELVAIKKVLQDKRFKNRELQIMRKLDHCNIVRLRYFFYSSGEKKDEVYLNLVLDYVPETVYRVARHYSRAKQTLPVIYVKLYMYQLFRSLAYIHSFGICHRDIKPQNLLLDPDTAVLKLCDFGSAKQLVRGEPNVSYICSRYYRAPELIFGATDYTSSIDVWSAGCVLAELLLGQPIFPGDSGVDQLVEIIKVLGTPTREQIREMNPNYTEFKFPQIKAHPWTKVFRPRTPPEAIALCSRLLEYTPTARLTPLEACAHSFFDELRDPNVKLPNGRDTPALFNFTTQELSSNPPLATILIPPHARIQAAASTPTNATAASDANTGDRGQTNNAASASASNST
# Method: as §2, §3
# [10] = molecular target: T9, panel of 60 human kinases (Homo sapiens, UniProt P49840); assay: as above; type: biochemical; conditions: GSK3a; 0.1 μM; 10 μM ATP; read-out: % Enzyme Activity (relative to DSMO controls)
# T9 construct: purchased Reaction Biology Corp
# T9 sequence (P49840 whole entry): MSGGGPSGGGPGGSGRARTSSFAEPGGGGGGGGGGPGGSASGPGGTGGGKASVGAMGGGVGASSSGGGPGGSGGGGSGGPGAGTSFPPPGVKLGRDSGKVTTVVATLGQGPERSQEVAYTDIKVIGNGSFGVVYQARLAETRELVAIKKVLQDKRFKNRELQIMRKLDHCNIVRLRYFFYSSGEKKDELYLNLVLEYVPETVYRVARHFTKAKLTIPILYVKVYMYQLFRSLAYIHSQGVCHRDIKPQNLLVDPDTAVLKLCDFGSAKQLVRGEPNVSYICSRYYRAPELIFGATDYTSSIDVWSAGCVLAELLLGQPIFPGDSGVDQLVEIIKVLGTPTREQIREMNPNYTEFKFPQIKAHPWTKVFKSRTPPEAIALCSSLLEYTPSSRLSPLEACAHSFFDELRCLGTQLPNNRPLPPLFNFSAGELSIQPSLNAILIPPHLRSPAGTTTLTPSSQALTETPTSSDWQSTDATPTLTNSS
# Method: as §2, §3
# [11] = molecular target: T10, panel of 60 human kinases (Homo sapiens, UniProt Q00537); assay: as above; type: biochemical; conditions: CDK17/cyclin Y (PCTK2); 0.1 μM; 10 μM ATP; read-out: % Enzyme Activity (relative to DSMO controls)
# T10 construct: purchased Reaction Biology Corp
# T10 sequence (Q00537 whole entry): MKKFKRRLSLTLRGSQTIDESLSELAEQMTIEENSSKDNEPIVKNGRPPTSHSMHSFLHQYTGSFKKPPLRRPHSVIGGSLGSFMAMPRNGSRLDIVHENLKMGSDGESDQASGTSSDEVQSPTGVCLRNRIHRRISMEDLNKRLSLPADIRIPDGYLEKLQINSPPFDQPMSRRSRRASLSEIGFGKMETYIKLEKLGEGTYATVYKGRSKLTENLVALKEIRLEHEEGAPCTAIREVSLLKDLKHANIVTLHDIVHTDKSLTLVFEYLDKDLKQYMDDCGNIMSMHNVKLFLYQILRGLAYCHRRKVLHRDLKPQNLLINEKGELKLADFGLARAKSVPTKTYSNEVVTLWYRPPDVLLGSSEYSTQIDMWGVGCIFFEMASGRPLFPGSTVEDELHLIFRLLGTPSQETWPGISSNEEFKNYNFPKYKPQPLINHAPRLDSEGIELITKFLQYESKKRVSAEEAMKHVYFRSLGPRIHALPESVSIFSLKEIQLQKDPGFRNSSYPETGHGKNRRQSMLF
# Method: as §2, §3
# [12] = molecular target: T11, panel of 60 human kinases (Homo sapiens, UniProt Q92630); assay: as above; type: biochemical; conditions: DYRK2; 0.1 μM; 10 μM ATP; read-out: % Enzyme Activity (relative to DSMO controls)
# T11 construct: purchased Reaction Biology Corp
# T11 sequence (Q92630 1-601): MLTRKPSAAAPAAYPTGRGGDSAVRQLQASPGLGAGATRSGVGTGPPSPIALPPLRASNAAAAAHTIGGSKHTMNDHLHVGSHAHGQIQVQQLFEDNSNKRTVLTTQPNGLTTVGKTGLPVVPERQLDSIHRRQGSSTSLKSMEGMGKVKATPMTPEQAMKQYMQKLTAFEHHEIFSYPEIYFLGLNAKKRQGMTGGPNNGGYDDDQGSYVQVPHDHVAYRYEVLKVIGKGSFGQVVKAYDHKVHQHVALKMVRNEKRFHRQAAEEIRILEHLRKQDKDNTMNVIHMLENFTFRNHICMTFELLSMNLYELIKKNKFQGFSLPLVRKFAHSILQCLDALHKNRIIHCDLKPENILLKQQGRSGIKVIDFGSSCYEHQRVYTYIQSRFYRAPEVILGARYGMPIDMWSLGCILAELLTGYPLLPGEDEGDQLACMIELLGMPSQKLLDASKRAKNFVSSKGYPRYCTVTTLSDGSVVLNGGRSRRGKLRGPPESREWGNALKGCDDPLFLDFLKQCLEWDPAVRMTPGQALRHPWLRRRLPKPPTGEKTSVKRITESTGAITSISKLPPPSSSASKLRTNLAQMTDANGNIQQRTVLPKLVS
# Method: as §2, §3
# [13] = molecular target: HGK/MAP4K4 (Homo sapiens, UniProt O95819); assay: Radiolabeled ATP kinase assay (Reaction Biology Corp.), HGK; type: biochemical; design: purchased Reaction Biology Corp; conditions: 10 μM ATP, read-out: % Enzyme Activity (relative to DMSO controls), HGK/MAP4K4, Data 1; for remaining activity at 0.025 µM: [Cmpd] 0.025 μM; for remaining activity at 0.1 µM: [Cmpd] 0.1 μM
# Method: as §1
Compound,"EC50 ([1]; Homo sapiens, Neuron)","viability at 1 µM ([1]; Homo sapiens, Neuron)","Emax ([1]; Homo sapiens, Neuron)","% Enzyme Activity Remaining (relative to DMSO controls), MLK3/MAP3K11, Data 1 [2]","% Enzyme Activity Remaining (relative to DMSO controls), MLK3/MAP3K11, Data 2 [2]",remaining activity at 0.1 µM ([3]; CDK9/cyclin K),remaining activity at 0.1 µM ([3]; CDK9/cyclin T1),remaining activity at 0.1 µM ([3]; CDK9/cyclin T2),remaining activity at 0.1 µM [4],remaining activity at 0.1 µM ([5]; CDK4/cyclin D1),remaining activity at 0.1 µM ([5]; CDK4/cyclin D3),remaining activity at 0.1 µM [6],remaining activity at 0.1 µM [7],remaining activity at 0.1 µM [8],remaining activity at 0.1 µM [9],remaining activity at 0.1 µM [10],remaining activity at 0.1 µM [11],remaining activity at 0.1 µM [12],remaining activity at 0.025 µM [13],remaining activity at 0.1 µM [13],other results
"CN1CCN(Cc2ccc(-c3cnc4[nH]cc(-c5cccc(Cl)c5)c4c3)cc2)CC1 [Compound 7ad, 3-(3-Chlorophenyl)-5-(4-((4-methylpiperazin-1-yl)methyl)phenyl)-1H-pyrrolo[2,3-b]pyridine]",285 nM,87.7%,87.7%,37.50%,38.21%,99.7%,78%,95.2%,97.3%,70.9%,58.1%,96.9%,0.68%,108%,98.1%,97.1%,70.4%,69.7%,8.51%,2.92%,
"CN1CCN(Cc2ccc(-c3cnc4[nH]cc(-c5ccc6c(c5)OCCO6)c4c3)cc2)CC1 [Compound 7d, 3-(2,3-Dihydrobenzo[b][1,4]dioxin-6-yl)-5-(4-((4-methylpiperazin-1-yl)methyl)phenyl)-1H-pyrrolo[2,3-b]pyridine]",327 nM,72.9%,72.9%,25.04%,18.84%,95.8%,85.5%,93.7%,74.8%,19.4%,26.7%,58%,12.1%,73.8%,30.9%,13.6%,41.1%,8.19%,19.6%,4.25%,
"Cc1nn(C)c(C)c1-c1c[nH]c2ncc(-c3ccc(CN4CCN(C)CC4)cc3)cc12 [Compound 7ai, 5-(4-((4-Methylpiperazin-1-yl)methyl)phenyl)-3-(1,3,5-trimethyl-1H-pyrazol-4-yl)-1H-pyrrolo[2,3-b]pyridine]",3230 nM,,86.5%,93.11%,88.00%,99.7%,85.8%,84.8%,95.5%,65.9%,65.4%,87.7%,1.35%,76.2%,94%,84.7%,69.4%,66.5%,105%,106%,
"OCCN1CCN(Cc2ccc(-c3cnc4[nH]cc(-c5cccc(Cl)c5)c4c3)cc2)CC1 [Compound 12k, 2-(4-(4-(3-(3-Chlorophenyl)-1H-pyrrolo[2,3-b]pyridin-5-yl)benzyl)piperazin-1-yl)ethan-1-ol]",99 nM,,112%,,,,,,,,,,,,,,,,,,EC50 [1]: 100 nM
"CN1CCN(Cc2ccc(-c3cnc4[nH]cc(-c5ccc6[nH]ccc6c5)c4c3)cc2)CC1 [Compound 1, 3-(1H-Indol-5-yl)-5-(4-((4-methylpiperazin-1-yl)methyl)phenyl)-1H-pyrrolo[2,3-b]pyridine, reference compound]",215 nM,102%,102%,,,102%,96.6%,98.1%,81.4%,51%,49.1%,94.9%,3%,25.4%,100%,90.8%,66.1%,44%,18.5%,5.23%,remaining activity at 0.1 µM ([2]; 0.1 μM): 10.5%
